pIC50: −log10 of the molar value. Starred links: 1 amine or outer side, 2 acyl side, 3 side chain; linkers in the order of their positions; H or OH if unused. Non-standard residues stand in square brackets, D forms with d. No end group written: not given here. *: point of attachment. X1 = CC(C)C(C)[C@H](N[*:1])C(=O)[*:2]; Ile(3-Me) = CCC(C)(C)[C@H](N)C(=O)O; d(aThr) = C[C@@H](O)[C@@H](N)C(=O)O; Butanoyl(2-oxo) = CCC(=O)C(=O)*; Tle = CC(C)(C)[C@H](N)C(=O)O
Legend:
fungi = test: Activity towards fungi
bacteria = test: Activity towards bacteria
[1] = Cytotoxic assay (MTT) against HeLa cells; assay type: cell-based; settings: 3 days incubation, MTT readout
Protocol: The activity of aeronamide A was measured against HeLa cells. Stocked HeLa cells were resuspended in 10 mL HEPES buffered high glucose Dulbecco's Modified Eagle Medium (DMEM) supplemented with GlutaMAX (Gibco). Additionally, the medium contained 10% fetal calf serum (FCS) and […] gentamycin. The cells were centrifuged for 5 min at 1000×g and room temperature. The medium was discarded and the cells resuspended in 10 mL fresh medium. The cells were put in a culture dish and incubated for 3-4 days at 37° C. The cells were checked under the microscope and treated further only when 60-80% of the surface was covered with cells. The medium was removed from the culture flask and the cells were washed with 10 mL phosphate buffered saline (PBS). The PBS was discarded and the cells treated with 2 mL Trypsin-EDTA solution. When the cells were detached, 10 mL of medium was added and centrifuged for 5 min at 1000×g and room temperature. The supernatant was discarded and 10 mL fresh medium were added. 2 mL of the cell suspension were put in a fresh culture flask containing 10 mL medium. Cells healthy enough for cytotoxicity assays were counted and diluted to a 10,000 cells/mL solution. 96 well plates were filled with 200 μL cell suspension per well. All plates were incubated overnight at 37° C. […] Absorbance was measured at 570 nm and IC50 was calculated using GraphPad Prism 6 (GraphPad).

{Butanoyl(2-oxo)}-[Ile(3-Me)][dA][Tle][dV][X1][dV]A[dV][Tle]GA[dA]A[dA]A[dV][Tle][d(aThr)]Y[dL]G[dA]A[dD](NHMe)[Tle][dV]G[dA]A[dD](NHMe)G[d(aThr)][Tle][d(aThr)]A[dD](NHMe)A[dV]A[dD](NHMe)T[dD](NHMe)A[dV]A [Aeronamide A]
cytotoxic activity towards fungi (fungi): not towards the bacteria and fungi | cytotoxic activity towards bacteria (bacteria): not towards the bacteria and fungi | pIC50 [1]: 8.83

Reference: patent US20220089655A1, “NOVEL POLYPEPTIDE-MODIFYING ENZYMES AND USES THEREOF” (ETH ZURICH, priority 2018, published 2022)
